According to the supplement of paper PMC10307832:

Key:
Test in all cases: relative viability (nuclei count vs DMSO), 5 days (fraction); higher = more cells survive
[1] = compound: CC1=C(C(=O)N2C=CSC2=N1)CCN3CCC(=C(C4=CC=CC=C4)C5=CC=C(C=C5)F)CC3 + Cc1nc(NC(=O)N2CCC[C@H]2C(N)=O)sc1-c1ccnc(C(C)(C)C(F)(F)F)c1 [Alpelisib] (partner 2 µM)
Outline: (§1)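 Lung cancer cell lines in 1536-well plates were dosed by pin tool the day after seeding, either with one drug alone or with a fixed anchor-drug dose plus five library-drug doses (not always all listed) in √10 steps. After 5 days, cells were fixed and their nuclei stained in one step (final 0.05% Triton X-100, 1% formaldehyde, 1 ug/ml Hoechst), then counted on 4× images. Relative viability is the nuclei count in treated wells divided by that in vehicle wells. Values are medians of duplicate plates.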

[2] = compound: CC1=C(C(=O)N2C=CSC2=N1)CCN3CCC(=C(C4=CC=CC=C4)C5=CC=C(C=C5)F)CC3 + Cc1cc(Nc2cc(N3CCN(C)CC3)nc(Sc3ccc(NC(=O)C4CC4)cc3)n2)n[nH]1 [Tozasertib] (partner 0.1 µM)
Outline: as §1

[3] = compound: CC1=C(C(=O)N2C=CSC2=N1)CCN3CCC(=C(C4=CC=CC=C4)C5=CC=C(C=C5)F)CC3 + CCNC(=O)c1noc(-c2cc(C(C)C)c(O)cc2O)c1-c1ccc(CN2CCOCC2)cc1 [Luminespib] (partner 0.01 µM)
Outline: as §1

[4] = compound: CC1=C(C(=O)N2C=CSC2=N1)CCN3CCC(=C(C4=CC=CC=C4)C5=CC=C(C=C5)F)CC3 + Cc1nc(Nc2ncc(C(=O)Nc3c(C)cccc3Cl)s2)cc(N2CCN(CCO)CC2)n1 [Dasatinib] (partner 0.075 µM)
Outline: as §1

Cell Line	relative viability ([1]; first compound 0.08 µM)	relative viability ([1]; first compound 0.253 µM)	relative viability ([1]; first compound 0.8 µM)	relative viability ([1]; first compound 2.53 µM)	relative viability ([1]; first compound 8 µM)	relative viability ([2]; first compound 0.08 µM)	relative viability ([2]; first compound 0.253 µM)	relative viability ([2]; first compound 0.8 µM)	relative viability ([2]; first compound 2.53 µM)	relative viability ([2]; first compound 8 µM)	relative viability ([3]; first compound 0.08 µM)	relative viability ([3]; first compound 0.253 µM)	relative viability ([3]; first compound 0.8 µM)	relative viability ([3]; first compound 2.53 µM)	relative viability ([3]; first compound 8 µM)	relative viability ([4]; first compound 0.08 µM)	relative viability ([4]; first compound 0.253 µM)	relative viability ([4]; first compound 0.8 µM)	relative viability ([4]; first compound 2.53 µM)	relative viability ([4]; first compound 8 µM)
NCI-H661	0.658	0.498	0.461	0.623	0.427	0.341	0.35	0.36	0.383	0.361	1.03	0.984	0.928	1.04	0.598	0.862	0.847	0.75	0.913	0.628
NCI-H727	0.507	0.509	0.493	0.738	0.425	0.511	0.589	0.625	0.739	0.598	0.284	0.668	0.346	0.331	0.38	0.319	0.338	0.394	0.396	0.319
NCI-H838	0.964	0.979	1.02	1.32	0.773	0.267	0.286	0.27	0.266	0.244	0.298	0.263	0.227	0.318	0.259	0.295	0.27	0.258	0.31	0.282
NCI-H1355	0.79	0.948	0.854	0.899	0.623	0.623	0.544	0.52	0.496	0.532	0.767	0.735	0.809	0.656	0.675	0.698	0.605	0.769	0.771	0.632
NCI-H1395	1.09	1.33	1.05	0.958	1.11	0.809	0.868	0.697	0.765	0.686	0.606	0.746	1.01	0.955	0.776	0.417	0.406	0.416	0.394	0.438
NCI-H1437	–	1.01	1.09	1.21	0.729	0.399	0.35	0.433	0.43	0.36	1.11	1.21	1.28	1.27	0.739	0.471	0.346	0.434	0.426	0.339
NCI-H1651	1.19	0.972	1.03	0.88	0.785	0.689	0.611	0.683	0.793	0.379	1.04	0.943	1.07	1.04	0.588	0.406	0.535	0.423	0.434	0.341
NCI-H1666	0.969	1.02	0.902	1.06	0.794	0.596	0.591	0.655	0.642	0.493	1.07	1.06	1.01	0.984	0.848	0.794	0.689	0.827	0.861	0.63
